Measured values published in ChEMBL document CHEMBL4312011, “Synthesis and biological evaluation of triterpenoid thiazoles derived from betulonic acid, dihydrobetulonic acid, and ursonic acid” (Eur J Med Chem, 2020).
pIC50: −log10 of the molar value.

Columns and labels:
K562 = experiment: Cytotoxicity against human K562 cells incubated for 72 hrs by MTS assay; format: functional, cell-based; settings: K562, 72 h
[1] = Cytotoxicity against human K562-TAX cells incubated for 72 hrs by MTS assay; format: functional, cell-based
MRC5 = experiment: Cytotoxicity against human MRC5 cells incubated for 72 hrs by MTS assay; format: cell-based; settings: MRC5, 72 h
HCT-116 [2] = experiment: Cytotoxicity against p53 knockout human HCT116 cells incubated for 72 hrs by MTS assay; format: functional, cell-based; settings: HCT-116, 72 h
CCRF-CEM = experiment: Cytotoxicity against human CCRF-CEM cells incubated for 72 hrs by MTS assay; format: functional, cell-based
BJ = experiment: Cytotoxicity against human BJ cells incubated for 72 hrs by MTS assay; format: cell-based
A549 = experiment: Cytotoxicity against human A549 cells incubated for 72 hrs by MTS assay; format: functional, cell-based; settings: A549, 72 h
[3] = Cytotoxicity against human CEM-DNR-bulk cells incubated for 72 hrs by MTS assay; format: functional, cell-based
U2OS = experiment: Cytotoxicity against human U2OS cells incubated for 72 hrs by MTS assay; format: functional, cell-based
HCT-116 [4] = experiment: Cytotoxicity against human HCT116 cells incubated for 72 hrs by MTS assay; format: functional, cell-based; settings: HCT-116, 72 h

Row | SMILES | pIC50 (K562) | pIC50 [1] | pIC50 (MRC5) | pIC50 (HCT-116 [2]) | pIC50 (CCRF-CEM) | pIC50 (BJ) | pIC50 (A549) | pIC50 [3] | pIC50 (U2OS) | pIC50 (HCT-116 [4])
1 | C=C(C)[C@@H]1CC[C@]2(C(=O)O)CC[C@]3(C)[C@H](CC[C@@H]4[C@@]5(C)Cc6sc(N7CCCCC7)nc6C(C)(C)[C@@H]5CC[C@]43C)[C@@H]12 | 4.44 | < 4.30 | 4.30 | < 4.30 | 5.03 | < 4.30 | < 4.30 | < 4.30 | < 4.30 | < 4.30
2 | C[C@H]1[C@H](C)CC[C@]2(C(=O)O)CC[C@]3(C)C(=CC[C@@H]4[C@@]5(C)Cc6sc(N7CCCCC7)nc6C(C)(C)[C@@H]5CC[C@]43C)[C@H]12 | < 4.30 | < 4.30 | < 4.30 | < 4.30 | 4.66 | < 4.30 | < 4.30 | < 4.30 | < 4.30 | < 4.30
3 | C[C@H]1[C@H](C)CC[C@]2(C(=O)O)CC[C@]3(C)C(=CC[C@@H]4[C@@]5(C)Cc6sc(NC7CCCCC7)nc6C(C)(C)[C@@H]5CC[C@]43C)[C@H]12 | < 4.30 | < 4.30 | < 4.30 | < 4.30 | 4.71 | < 4.30 | < 4.30 | < 4.30 | < 4.30 | < 4.30
4 | C[C@H]1[C@H](C)CC[C@]2(C(=O)O)CC[C@]3(C)C(=CC[C@@H]4[C@@]5(C)Cc6sc(N7CCOCC7)nc6C(C)(C)[C@@H]5CC[C@]43C)[C@H]12 | 5.07 | 4.53 | < 4.30 | 4.42 | 5.07 | < 4.30 | 4.54 | 4.62 | 4.54 | 4.63
5 | CCN(CC)c1nc2c(s1)C[C@]1(C)[C@H]3CC[C@@H]4[C@H]5[C@H](C(C)C)CC[C@]5(C(=O)O)CC[C@@]4(C)[C@]3(C)CC[C@H]1C2(C)C | 4.79 | < 4.30 | < 4.30 | < 4.30 | 4.71 | < 4.30 | < 4.30 | < 4.30 | 4.34 | < 4.30
6 | CC(C)[C@@H]1CC[C@]2(C(=O)O)CC[C@]3(C)[C@H](CC[C@@H]4[C@@]5(C)CC(Br)C(=O)C(C)(C)[C@@H]5CC[C@]43C)[C@@H]12 (stereo not given in full) | 6.15 | 5.29 | 5.10 | 5.28 | 5.51 | 4.66 | 4.82 | 4.81 | 5.00 | 6.00
7 | C[C@H]1[C@H](C)CC[C@]2(C(=O)O)CC[C@]3(C)C(=CC[C@@H]4[C@@]5(C)Cc6sc(N7CCN(C)CC7)nc6C(C)(C)[C@@H]5CC[C@]43C)[C@H]12 | < 4.30 | < 4.30 | < 4.30 | < 4.30 | 4.32 | < 4.30 | < 4.30 | < 4.30 | < 4.30 | < 4.30
8 | C=C(C)[C@@H]1CC[C@]2(C(=O)O)CC[C@]3(C)[C@H](CC[C@@H]4[C@@]5(C)CC(Br)C(=O)C(C)(C)[C@@H]5CC[C@]43C)[C@@H]12 (stereo not given in full) | 4.45 | 4.63 | 4.69 | 4.49 | 5.52 | 4.47 | 4.62 | 4.75 | 4.63 | 4.51
9 | CC(C)[C@@H]1CC[C@]2(C(=O)O)CC[C@]3(C)[C@H](CC[C@@H]4[C@@]5(C)CCC(=O)C(C)(C)[C@@H]5CC[C@]43C)[C@@H]12 [DIHYDROBETULONIC ACID] | 4.94 | 4.95 | < 4.30 | 4.44 | 5.21 | < 4.30 | 4.65 | 4.32 | 4.56 | 4.47
10 | C[C@H]1[C@H](C)CC[C@]2(C(=O)O)CC[C@]3(C)C(=CC[C@@H]4[C@@]5(C)Cc6sc(N7CCCC7)nc6C(C)(C)[C@@H]5CC[C@]43C)[C@H]12 | < 4.30 | 4.43 | < 4.30 | < 4.30 | 4.97 | < 4.30 | < 4.30 | 4.41 | < 4.30 | 4.41
11 | C=C(C)[C@@H]1CC[C@]2(C(=O)O)CC[C@]3(C)[C@H](CC[C@@H]4[C@@]5(C)Cc6sc(N7CCOCC7)nc6C(C)(C)[C@@H]5CC[C@]43C)[C@@H]12 | 4.95 | < 4.30 | < 4.30 | < 4.30 | 5.14 | < 4.30 | < 4.30 | < 4.30 | < 4.30 | < 4.30
12 | C[C@H]1[C@H](C)CC[C@]2(C(=O)O)CC[C@]3(C)C(=CC[C@@H]4[C@@]5(C)CCC(=O)C(C)(C)[C@@H]5CC[C@]43C)[C@H]12 [URSONIC ACID] | < 4.30 | 4.45 | < 4.30 | < 4.30 | 4.98 | < 4.30 | < 4.30 | 4.47 | < 4.30 | 4.30
13 | C=C(C)[C@@H]1CC[C@]2(C(=O)O)CC[C@]3(C)[C@H](CC[C@@H]4[C@@]5(C)CCC(=O)C(C)(C)[C@@H]5CC[C@]43C)[C@@H]12 [BETUNOLIC ACID] | 4.87 | 4.83 | 4.53 | 4.31 | 5.08 | 4.40 | 4.40 | 4.95 | 4.42 | 4.42
14 | C=C(C)[C@@H]1CC[C@]2(C(=O)O)CC[C@]3(C)[C@H](CC[C@@H]4[C@@]5(C)Cc6sc(NCc7ccccc7)nc6C(C)(C)[C@@H]5CC[C@]43C)[C@@H]12 | < 4.30 | < 4.30 | < 4.30 | < 4.30 | 5.43 | < 4.30 | < 4.30 | < 4.30 | 4.32 | < 4.30
15 | C[C@H]1[C@H](C)CC[C@]2(C(=O)O)CC[C@]3(C)C(=CC[C@@H]4[C@@]5(C)Cc6sc(N)nc6C(C)(C)[C@@H]5CC[C@]43C)[C@H]12 | < 4.30 | 4.48 | < 4.30 | < 4.30 | 4.72 | < 4.30 | < 4.30 | 4.53 | 4.30 | 4.37
16 | CC1(C)CC[C@]2(C(=O)O)CC[C@]3(C)C(=CC[C@@H]4[C@@]5(C)CCC(=O)C(C)(C)[C@@H]5CC[C@]43C)[C@@H]2C1 [OLEANONIC ACID] | < 4.30 | 4.67 | < 4.30 | < 4.30 | 4.82 | < 4.30 | 4.31 | 4.76 | 4.31 | 4.35
17 | CCN(CC)c1nc2c(s1)C[C@]1(C)[C@H]3CC=C4[C@@H]5[C@@H](C)[C@H](C)CC[C@]5(C(=O)O)CC[C@@]4(C)[C@]3(C)CC[C@H]1C2(C)C | < 4.30 | < 4.30 | < 4.30 | < 4.30 | 4.58 | < 4.30 | < 4.30 | < 4.30 | < 4.30 | 4.38
18 | C=C(C)[C@@H]1CC[C@]2(C(=O)O)CC[C@]3(C)[C@H](CC[C@@H]4[C@@]5(C)Cc6sc(N(CC)CC)nc6C(C)(C)[C@@H]5CC[C@]43C)[C@@H]12 | 4.53 | 4.33 | 4.63 | 4.50 | 5.07 | < 4.30 | < 4.30 | < 4.30 | < 4.30 | < 4.30
19 | C=C(C)[C@@H]1CC[C@]2(C(=O)O)CC[C@]3(C)[C@H](CC[C@@H]4[C@@]5(C)Cc6sc(N7CCCC7)nc6C(C)(C)[C@@H]5CC[C@]43C)[C@@H]12 | < 4.30 | 4.64 | < 4.30 | < 4.30 | 5.15 | < 4.30 | < 4.30 | < 4.30 | < 4.30 | < 4.30
